Measurements as given in a melting point compilation (Tetko et al.; mined from patent text by program, amines drawn as free bases though some values may be those of a salt).

Structure (SMILES)	melting point [°C]
CC=CC(=O)Nc1ccc(-c2ccncc2)cc1	247 to 249
O=C1NCCN1c1cccc(Cl)c1	121 to 123
CNc1ccc(-c2ncn(-c3ccc(OC(F)(F)F)cc3)n2)cc1	121 to 123
O=C1c2cnc3[nH]ncc3c2C(=O)N1CCc1ccccc1	237 to 239
CS(=O)(=O)c1cccc(NC(=O)c2cnn3ccc(-c4ccc(Cl)cc4)nc23)c1	258 to 260
CC(=O)C1=Cc2cc(Cl)cc(C)c2OC1	78 to 79
CC(C)(C)C(=O)C(CS(=O)(=O)c1ccccc1)n1cncn1 (stereo unspecified)	135
S=C1NCCCN1c1ccccc1	211 to 212
CC(c1ccc(NC=O)c(N)c1)n1ccnc1 (stereo unspecified)	212
CNc1nc(=O)c2cccnc2n1Cc1ccc(F)cc1	242 to 246
O=C(O)C(c1ccc(Cl)cc1)c1ccc(-n2ncc(=O)[nH]c2=O)cc1Cl (stereo unspecified)	196
CNS(=O)(=O)Nc1cc(-c2nn(C)c(OC(F)F)c2Cl)c(Cl)cc1Cl	133
Cc1c(C(=O)c2ccc(F)cc2)n(N2C(=O)c3ccccc3C2=O)c2ccccc12	227 to 228
Nc1ccccc1-c1ncco1	31 to 32
CCCCCCCCCCCCCCc1cc(C(=O)O)c[nH]1	83 to 85
COc1cccc(CC(=O)Nc2ccc3sc(C)nc3c2Cl)c1	147 to 148
O=Cc1cc(Cc2ccccc2)ccc1O	78 to 79
CCCCc1c(Cl)nc(N)nc1-c1ccccc1	183 to 185
CS(=O)(=O)c1ccc(-c2ccc(C=O)n2-c2ccc(F)cc2)cc1	111 to 112
O=c1cnc(C(F)(F)F)cn1-c1c(Cl)cc(C(F)(F)F)cc1Cl	109 to 111
N#Cc1ccc(C(=O)N2CC2C#N)cc1 (stereo unspecified)	107 to 110
Oc1ccc(Cl)cc1I	79 to 82
OC(Cn1cncn1)(Cn1cnc(-c2ccc(F)cc2)n1)c1ccc(C(F)(F)F)cc1F (stereo unspecified)	96 to 100

Structure (SMILES)	melting point [°C]
OCCSP(=S)(C1CCCCC1)C1CCCCC1	82 to 84
C#CCNc1onc(-c2ccccc2)c1Cl	83 to 84
CCOc1ccc2ccccc2c1-c1c(OCC)ccc2ccccc12	92
COc1cc(OC)nc(Oc2cccc3c2C(=O)OC3F)n1 (stereo unspecified)	172 to 174
CS(=O)(=O)On1c(C(F)(F)F)nc2ncc(Cl)cc21	137
COc1ccc(-n2nc(-c3ccc(F)cc3)c(-c3ccncc3)c2-c2c[nH]cn2)cc1	124 to 126
CC(C)(C)c1cc(I)c(O)c(C=O)c1	77
CCOC(=O)c1cn(-c2ncns2)c2nc(Cl)c(F)cc2c1=O	203 to 206
O=C(O)c1ccc(-c2cc3ccccc3[nH]c2=S)cc1	> 300
Cc1cc(=O)n2c3c(cc(C(O)(C(F)(F)F)C(F)(F)F)cc13)OC2	262 to 264
CC(=O)c1cc(S(=O)(=O)c2cccc(F)c2)ccc1O	164 to 165
Cc1cccc(-c2coc3cc(O)c(O)cc3c2=O)c1	258
CC(C)CCn1cc(C(=O)O)c2ccc(Cl)cc21	53 to 55
S=C1CN=C(c2ccccc2Cl)c2cc(CCc3ccc(-c4ccccc4)cc3)sc2N1	187 to 189
C=C(C)c1ccc(C(=O)C2=C(O)C(=O)N(c3ccc(C)nn3)C2c2ccc(OC(F)(F)F)cc2)cc1 (stereo unspecified)	253
COC(=O)c1coc(-c2ncn3c2CN(C)C(=O)c2ccccc2-3)n1	264 to 265
COC(=O)[C@@]12CN(Cc3ccccc3)C[C@@H]1[C@@](O)(c1cccc(OC)c1)CC[C@H]2c1ccccc1 (racemic)	118
O=C(O)C1=Cc2cc(S(=O)(=O)NCc3ccccc3)cc(Cl)c2OC1C(F)(F)F (stereo unspecified)	167 to 174
COC(=O)/C=C\c1cnn(C)c1-c1ccc(F)cc1	108 to 109
CCOC(=O)C1=Cc2cc(Cl)ccc2OC1C(F)(F)F (stereo unspecified)	62 to 64
CCOC(=O)c1cccc(-c2ccc(Cl)c3cc(CBr)sc23)c1	143 to 144
CCCc1nn(C)c(C(N)=O)c1C(=O)c1ccc(N)cc1	140
O=CNc1ccc(C=O)cc1[N+](=O)[O-]	183 to 191

Continued, values first:

melting point [°C]	Structure (SMILES)
73 to 73.5	Cc1cc(C)c(NC(=O)OC(C)(C)C)c(C)c1
60 to 62	CC(C)c1cc([N+](=O)[O-])ccc1OCC1CO1 (stereo unspecified)
149 to 151	CCOc1cc(N)c(Cl)cc1C(=O)NCCC1CN(Cc2ccccc2)CCO1 (stereo unspecified)
101 to 103	Cc1ccc(S(=O)(=O)OCC2CN(C(=O)Oc3ccccc3)CCO2)cc1 (stereo unspecified)
129 to 132	CC(=O)c1cc2c(Br)ccc(OC(C)c3ccccc3)c2o1 (stereo unspecified)
147 to 148	CCOC(=O)c1cn(Cc2ccccc2)nc1OCc1ccc(OC)c(OCc2nc(-c3ccco3)oc2C)c1
105	COc1ccc(C=C2CCCN2Cc2ccccc2)cc1OC
217	COc1ccc(-c2ccc3cnc(Nc4ccc(C5CCN(CC(N)=O)CC5)cc4)nn23)cn1
115 to 118	Cc1ccc2c3c(ccc2n1)OC[C@H](CNCC1CCc2sc4ccc(F)cc4c2C1)O3 (stereo partly specified)
193 to 194	CC(C)(C)OCCCNC(=O)c1n[nH]cc1NC(=O)c1ccccn1
80 to 82	CC[C@H](Cn1ncnn1)n1cnc2cc3c(=O)n([C@H](C)Cn4ncnn4)nnc3cc2c1=O
286 to 288	COc1cc(C(=O)O)ccc1Cn1cc(/C=C/C(=O)N2CCCC2)c2ccc(/C=C/C(=O)N3CCCC3)cc21
95 to 98	COc1ccc(-c2cc(C3CCCCC3)sc2-c2ccc(OC)cc2)cc1
162 to 165	COc1cccc([C@H]2O[C@H](CC(=O)Nc3cc(CCC(=O)O)ccc3OCCCc3ccccc3)C(=O)N(CC(C)(C)CO)c3ccc(Cl)cc32)c1OC
143 to 144	Cc1cc(NC(=O)c2cccc(CCc3cccnc3)c2)ccc1C(C)C
117 to 120	CCC(C(=O)N(C)C)n1nc(-c2ccccc2)cc1C (stereo unspecified)
110 to 120	NC(=O)CC(=S)N1CCCC1
164 to 170	Cc1ccc(S(=O)(=O)N2CCC(c3ccc(CCCCC(=O)O)cc3)CC2)cc1
121 to 124	CC(C)c1ccc(C(=O)CCc2ccccc2)c(C(C)C)c1OS(N)(=O)=O
177 to 178	COc1cc(C)c(C)cc1NC(=O)N1CCN(c2cccc(O)c2)CC1
219 to 220	CCCCc1nc2c(N)nc3cc(-c4ccc(C(C)(C)C)cc4)ccc3c2n1CC(C)C
150 to 154	CCOC(=O)C1=C(COCC(=O)O)NC(C)=C(C(=O)OC)C1c1ccccc1Cl (stereo unspecified)
58 to 60	CCCCCCCCCCCC1=NCCN1CCOCCO
168 to 170	O=C1OCCN1N=C1CCOc2ccc([N+](=O)[O-])cc21
163 to 170	COc1cc2c(c(Cl)c1Cl)C(=O)C(C)(c1ccc(F)cc1)C2 (stereo unspecified)
192 to 193	CCc1ccc(Cc2cn(C3OC(COC(=O)c4ccccc4)C(O)C(OC(=O)c4ccccc4)C3OC(=O)c3ccccc3)c3cccc(Cl)c23)cc1 (stereo unspecified)
72 to 78	CC(C)(C)OC(=O)[C@@H]1CCC(=S)N1Cc1ccccc1
310 to 312	COc1cc2c(cc1-c1cccnc1)-c1c(-c3cccnc3)c3c(n1CC2)C(=O)N(C(C)(C)C)CCC3

melting point [°C]	Structure (SMILES)
73	CCCCCc1ccc(C(=O)Cc2cccc(C#N)c2)cc1
88 to 89	CCc1c(Cl)c(Oc2ncc(C(F)(F)F)cc2Cl)nn1C(=O)NC
73 to 75.5	COC(=O)CCCCCOc1ccc(NC(=O)CCCCCO)cc1
106 to 107	COc1ccc(C(=C2CCCCC2)c2ccc(OC)cc2)cc1
119 to 121	CN(C)C(=O)C(=O)C1=CC2(CCCC2)c2ccccc21
92 to 93	CCOC(=O)CC(=O)C=Cc1cccc([N+](=O)[O-])c1
38.5 to 41	CC(CSC(=S)N(C)C)[N+](=O)[O-] (stereo unspecified)
167 to 171	C[C@@H](NS(=O)(=O)N1CCN(c2ccc(OCc3ccc4ccccc4c3)cc2)CC1)C(=O)O
188 to 191	COc1ccc(Cl)cc1C(=O)NCCc1ccc(C=C(C)C(=O)O)cc1
94 to 95	CN(O)C(=O)NCCc1ccc2c(c1)OCCO2
128 to 129	CC(C)(C)c1cc(O)cc(C(C)(C)C)c1Sc1nnc(-c2ccccn2)o1
127 to 128	COC1CC(C(C)CCCC(C)C)C2(C)CCC3C(=C12)CCC1CC(O)CCC13C (stereo unspecified)
206 to 209	OC1CSC(Oc2cccc(-c3cnccn3)c2)C(O)C1O (stereo unspecified)
88 to 90	CCOC(=O)C(CNC(C)=O)c1cn(C(=O)OCC)c2ccc(OC)cc12 (stereo unspecified)
176 to 177	CCc1nc2c(N)nc3ccccc3c2n1CCCCS(=O)(=O)NCc1ccc(OC)cc1
243 to 245	CS(=O)c1ccc(-n2cnc3ccc(-c4nnc(C5CC5)o4)cc32)cc1 (stereo unspecified)
248 to 250	Cc1nc2cc3c(cc2c(=O)[nH]1)C(N(C)c1ccc(C(=O)NC(CCc2nnn[nH]2)C(=O)O)nc1)CC3 (racemic)
208 to 209	CC(C)(C)OC(=O)N1CCC(O)(c2ccc(Oc3ccc(NC(=O)c4ccc(Cl)c(Cl)c4)cc3)cc2)CC1
226 to 227	CC(C)Cn1c(CNC(=O)OC(C)(C)C)c(-c2ccc(Cl)cc2)c2cc(C(=O)O)ccc2c1=O
152 to 154	CC(C)(C)c1ccc2c(c1)Cc1cc(C(C)(C)C)ccc1S2
150 to 151	CC(C)Oc1c(C(N)=O)sc2ccc(N)cc12
129 to 132	COc1cc(N)c(Cl)cc1C(=O)NCC1CCN(CCCCCOc2ccccc2)CC1
89.5 to 91	Cc1cc([N+](=O)[O-])ccc1OC12CC3CC(CC(C3)C1)C2
213 to 220	CN1CCC(N2CCN(c3cccc(-c4cn[nH]c4N)c3)CC2)CC1
158 to 159	COC(=O)C1=C(C)NC(C)=C(C(=O)O)C1c1ccccc1 (single isomer, unassigned; (-))
55 to 57	COC(=O)c1nc(C)ccc1OC
157 to 158	CC=CC(=O)NCCc1ccc(S(=O)(=O)N2CCN(C3CCCCC3)C2=N)cc1
